Measurements as given in the CheMixHub ionic liquid set.

Assay: xn = mol fraction of the nth substance listed
Settings: for viscosity: 100 kPa; for electrical conductivity: 101 kPa

CCCCCCCCCCCCOS(=O)(=O)[O-].[Na+] + O
Settings	electrical conductivity, 298.15 K [S/m]	viscosity, 298.15 K [mPa·s]	viscosity, 303.15 K [mPa·s]	viscosity, 308.15 K [mPa·s]	viscosity, 313.15 K [mPa·s]	viscosity, 318.15 K [mPa·s]
x1 = 1.802e-05	–	–	0.764	0.69	0.599	0.567
x1 = 3.604e-05	–	–	0.766	0.691	0.6	0.568
x1 = 5.406e-05	–	–	0.767	0.691	0.601	0.57
x1 = 6.168e-05	0.02352	–	–	–	–	–
x1 = 6.588e-05	0.02512	–	–	–	–	–
x1 = 7.207e-05	–	–	0.768	0.692	0.601	0.57
x1 = 7.696e-05	0.02928	–	–	–	–	–
x1 = 8.42e-05	0.03184	–	–	–	–	–
x1 = 9.009e-05	–	–	0.769	0.694	0.602	0.571
x1 = 9.222e-05	0.03505	–	–	–	–	–
x1 = 9.755e-05	0.03686	–	–	–	–	–
x1 = 0.0001029	0.03889	–	–	–	–	–
x1 = 0.0001081	–	–	0.77	0.695	0.603	0.571
x1 = 0.0001261	–	–	0.772	0.696	0.604	0.572
x1 = 0.0001441	–	–	0.773	0.698	0.605	0.573
x1 = 0.0001622	–	–	0.774	0.7	0.605	0.574
x1 = 0.0001802	–	–	0.775	0.701	0.606	0.575
x1 = 0.0001982	–	–	0.776	0.702	0.607	0.576
x1 = 0.0002162	–	–	0.776	0.702	0.608	0.576
x1 = 0.0002342	–	–	0.777	0.704	0.609	0.577
x1 = 0.0002522	–	–	0.778	0.704	0.609	0.577
x1 = 0.0002702	–	0.867	0.779	0.705	0.61	0.578

298.15 K, frequency 0.001 MHz
Settings	electrical conductivity [S/m]
x1 = 1.029e-05	0.00434
x1 = 2.57e-05	0.0104
x1 = 3.699e-05	0.0155
x1 = 5.034e-05	0.0213
x1 = 6.37e-05	0.0264
x1 = 7.295e-05	0.0301
x1 = 8.321e-05	0.0349
x1 = 9.348e-05	0.0392
x1 = 0.0001038	0.0422
x1 = 0.000113	0.0461
x1 = 0.0001212	0.051
x1 = 0.0001315	0.054
x1 = 0.0001418	0.0567
x1 = 0.00015	0.0607
x1 = 0.0001582	0.0631
x1 = 0.0001665	0.0649
x1 = 0.000183	0.0673
x1 = 0.0001944	0.0683
x1 = 0.0002036	0.0701
x1 = 0.000214	0.0713
x1 = 0.0002222	0.0737
x1 = 0.0002315	0.075
x1 = 0.0002408	0.0771
x1 = 0.0002521	0.0792
x1 = 0.0002625	0.0801
x1 = 0.0002738	0.0823
x1 = 0.0002862	0.0841
